Source: paper PMC8201324, “Pyrazoles and Pyrazolines as Anti-Inflammatory Agents” (Molecules, 2021)
Marks after values point to notes of the source that are not given here.

Tests used:
[1] = Inhibition of linoleic acid lipid peroxidation (AAPH); type: biochemical
Description: For the lipid peroxidation study, 2,2′-azobis(2-amidinopropane) hydrochloride (AAPH) was used for the generation of peroxyl radicals. The generation of the conjugated diene hydroperoxide derived from the oxidation of sodium linoleate in an aqueous solution was recorded at 234 nm. The compounds presented high anti-lipid peroxidation activity (78–100%) (Table 4). Pyrazolines 2a and 2b present lower anti-lipid peroxidation activity (89% and 78% respectively).
(§1) A stock solution (1% DMSO in the appropriate buffer with the tested compound diluted under sonication) was prepared for the in vitro assays from which several dilutions were made with the appropriate buffer. The in vitro experiments were performed at least in triplicate, and the standard deviation of absorbance was less than 10% of the mean.
AAPH was used as free radical initiator of alkylperoxyl radicals. The ability of the compounds to prevent the oxidation of linoleic acid sodium salt from alkylperoxyl radicals was recorded at 234 nm. Trolox was used as reference (93%) (Table 4).

[2] = ABTS+ decolorization assay for antioxidant activity; type: biochemical
Source text: Pyrazolines 2d and 2e which are the most lipophilic compounds, showing antioxidant activity using the ABTS radical cation (ABTS^•+) generated through potassium persulfate by oxidation with no participation of an intermediary radical. This reduction is completed by adding electron-donating antioxidants. It seems that lipophilicity influences the activity, since both present high lipophilicity values.
as §1
The ABTS radical cation (ABTS^+•) was generated by mixing ABTS stock solution in water (7 mM) with potassium persulfate (2.45 mM) and left in the dark at room temperature for 12–16 h before use. The results are recorded immediately after the mixing solutions at 734 nm. The results were compared to the appropriate standard inhibitor Trolox (Table 4).

[3] = test system: acetic acid-induced writhing; experiment: Anti-nociception writhing test (acetic acid); type: in vivo, Fisher 344 rats; conditions: 0.0057 mmol/kg body weight i.p., 0.6% acetic acid after 30 min
Source text: The acetic acid-induced writhing test is a quick, simple and reproducible method, despite the fact that it lacks specialization. […] The animals (Fisher 344 rats), were housed under standard conditions, and received a diet of commercial food pellets and water ad libitum during the maintenance, but were entirely fasted during the experiment period. Both sexes were used, while pregnant females were excluded. Each group was composed of 6–15 animals. Our studies were in accordance with recognized guidelines on animal experimentation (guidelines for the care and use of laboratory animals published by the Greek Government 160/1991, based on EU regulations 86/609). Rats were kept in the Centre of the School of Veterinary Medicine (EL54 BIO42), Aristotle University of Thessaloniki, which is registered by the official state veterinary authorities (presidential degree 56/2013, in harmony with the European Directive 2010/63/EEC). The experimental protocols were approved by the Animal Ethics Committee of the Prefecture of Central Macedonia. For the study of the analgesic activity of the tested compounds, pain is provoked with acetic acid. Animals were divided in three five-membered groups, according to our reported method. After treatment with the tested compounds (0.0057 mmol/kg body weight; intraperitoneally) in the first group, the second group was used as a positive control (aspirin; 0.0057 mmol/kg body weight i.p.) and the third group served as the control in which saline was administered (negative control). After 30 min, 0.6% acetic acid (1 mL/kg body weight) was injected i.p. The number of writhes was recorded for each animal every 5 min during a subsequent 30 min period (Table 6).

[4] = Reducing activity of the stable radical DPPH; type: biochemical
Description: The novel derivatives were studied for their interaction with the stable 2,2-diphenyl-1-picrylhydrazyl free radical (DPPH) at concentrations 50 µM, 100 µM, 200 µM and after 20 and 60 min (Table 3). This assay is based on the reduction of the DPPH by transferring an electron from the antioxidant. […] However, it seems that the interaction is dependent on the concentration and on the reaction time. From this point of view, it can be concluded that the acetyl pyrazolyl derivatives 2c and 2f seem to present the highest scavenging activities. An increase in concentration favors the activity. […] As for compounds 2a, 2b, 2c and 2f, activity seems to be time dependent at 200 µM. […] The presence of a chlorine group in 2e pyrazoline leads to an activity increase (compared to 2d) in concentration 200 µM. The acetyl derivative 2f presents better activity than 2b at 200 µM.
as §1
A stock solution (10 mM) of the novel derivatives in DMSO was prepared and an equal volume of it was added to a solution of DPPH in absolute ethanol to reach final concentrations 50, 100 µM and 200 µM. The absorbance was recorded at 517 nm, after 20 and 60 min at room temperature (Table 3).

[5] = test system: adjuvant-induced disease (AID); experiment: Adjuvant-induced disease (AID); type: in vivo, Fisher 344 rats; conditions: AID rats
Description: Adjuvant-induced disease (AID) is a good experimental model for rheumatoid arthritis, and is often used in testing agents for anti-inflammatory activity. The compound was administered intraperitoneally on the 1st day, i.e., the day of the administration of Freund’s adjuvant (FA), and once every other day for the following 24 days. Adjuvant arthritis was developed about 14 days post-FA administration. […] The effect of the tested compound on inflammation is shown in Table 7 and the time course of adjuvant arthritis development expressed as arthritic score is shown in Figure 2. In the same experimental model, Indomethacin (IMA) was used as a reference compound.
(§2) The animals (Fisher 344 rats), were housed under standard conditions, and received a diet of commercial food pellets and water ad libitum during the maintenance, but were entirely fasted during the experiment period. Both sexes were used, while pregnant females were excluded. Each group was composed of 6–15 animals. Our studies were in accordance with recognized guidelines on animal experimentation (guidelines for the care and use of laboratory animals published by the Greek Government 160/1991, based on EU regulations 86/609). Rats were kept in the Centre of the School of Veterinary Medicine (EL54 BIO42), Aristotle University of Thessaloniki, which is registered by the official state veterinary authorities (presidential degree 56/2013, in harmony with the European Directive 2010/63/EEC). The experimental protocols were approved by the Animal Ethics Committee of the Prefecture of Central Macedonia.
Rats were divided into four groups (five-membered groups of animals were used): groups one, two and three were injected intradermally with 0.1 mL Freund’s adjuvant (FA) into the base of the tails of the animals; group three was the FA control rats; group four was injected with saline, used as an absolute control. Compound 2d (group 1) and indomethacin (group 2) were injected i.p. once every other day for the following 24 days in a dose of 0.00057 mmol/mL/kg body weight (Table 7). Adjuvant arthritis was developed circa 14 days post-FA administration. Arthritic score was measured every 2 days from the commencement (14th day) day. Arthritic score was assessed on the 24th day. For quantification of arthritis (arthritic score); a single point was assigned for each wrist or ankle area and an additional point was given for each involved phalangeal joint, up to a maximum of five points per extremity.
On the 24th day and at least 12 h after the last injection, animals were administered zoxazolamine i.p. […], as an aqueous suspension with a few drops of Tween 80, and the duration of the paralysis were assessed (Table 7) (Figure 2). The experiment was conducted in duplicate.

[6] = test system: carrageenin-induced rat paw edema; experiment: Inhibition of the carrageenin-induced rat paw edema; type: in vivo, Fisher 344 rats; conditions: 0.0057 mmol/Kg body weight, intraperitoneally, 3.5 h after carrageenin
Source text: The carrageenin-induced rat paw edema assay was used, as a model of acute inflammation. Inflammation induced by carrageenan is acute, non-immune, well-researched, and highly reproducible, and is described as a biphasic event. Cardinal signs of inflammation—edema, hyperalgesia, and erythema, are developed immediately following subcutaneous injection, resulting from the action of pro-inflammatory agents: bradykinin, histamine, tachykinins, complement reactive oxygen and nitrogen species. It is known that NSAIDs act during the second phase of prostaglandin release, presenting weak activity in the first phase of histamine and serotonin release.
as §2
Carrageenin in water as an intradermal injection of 0.1 mL 2% was used for the induction of the edema in the right hind paw of the rats, according to the previously reported method. Animals were divided in five-membered groups and the tested compounds were suspended in water (0.0057 mmol/kg body weight), with a few drops of Tween 80, ground in a mortar before administered intraperitoneally simultaneously. The rats were euthanized 3.5 h after carrageenin injection. Comparison of the change in paw weight with that in control animals (treated with water) was expressed as a percent inhibition of the oedema CPE% values using indomethacin (IMA) as a reference compound. Values CPE% are the mean from two different experiments with a standard error of the mean less than 10% (Table 5). Student’s T test was applied.

[7] = 0.00057 mmol/mL/kg i.p. every other day for 24 days

Question: What does the source list for `Cc1c(C)c2c(c(C)c1O)CCC(C)(C(=O)O)O2` (stereo not drawn) [Trolox, 6-Hydroxy-2,5,7,8-tetramethyl-chroman-2-carboxylic acid, reference compound]?
Answer: AAPH% 100 µM (anti-lipid peroxidation) [1]: 93%; ABTS^+ % 100 µM (decolorization activity) [2]: 91%

Question: For `CC(=O)Oc1ccccc1C(=O)O` [Aspirin, acetylsalicylic acid, reference compound], which “Writhing Inhibition (%)” value [3] is on record?
Answer: Its value is 77 ** %.

Question: For `CC(Cc1ccc(O)c(O)c1)C(C)Cc1ccc(O)c(O)c1` (stereo not drawn) [NDGA, Nordihydroguaretic acid, reference compound], which “RA% 50 µM 20 min” value ([4]; 50 µM, 20 min) is on record?
Answer: Its value is 81%.

Question: What about the “RA% 50 µM 60 min” value ([4]; 50 µM, 60 min) of the same compound?
Answer: The value was 83%.

Question: And the “RA% 100 µM 20 min” value ([4]; 100 µM, 20 min)?
Answer: The value was 87%.

Question: And the “RA% 200 µM 20 min” value ([4]; 200 µM, 20 min)?
Answer: The value was 94%.

Question: And the “RA% 200 µM 60 min” value ([4]; 200 µM, 60 min)?
Answer: The value was 96%.

Question: With `COc1ccc2c(c1)c(CC(=O)O)c(C)n2C(=O)c1ccc(Cl)cc1` [Indomethacin, reference compound] as the compound, how does the “Percent change in body weight (g ± SD)” value [5, 7] read?
Answer: Its value is 8.3 ± 0.2 g.

Question: What about the “Percent change in liver weight (g ± SD)” value [5, 7] of the same compound?
Answer: Its value is 6.3 ± 0.4 g.

Question: And the “Zoxazolamine paralysis (minutes ± SD)” value ([5]; 24th day, zoxazolamine i.p.)?
Answer: The value was 217 ± 17 min.

Question: And the “CPE % (reduction in the rat paw edema induced by carrageenin)” value [6]?
Answer: Its value is 47 ** %.
